Assays:
Assay in all cases: combination Emax (second highest fraction inhibited in the dose matrix, 72 h); higher = more inhibition; extreme values may be limits of the assay
[1] = tested on: MDA-MB-415 (Breast Carcinoma)
How it was run: (§1)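 Cell lines in DMEM/F12 or RPMI with 10% FBS were plated in 1536-well plates, held 24 hours at 37°C, 5% CO2, then given two-drug dose matrices for 72 hours (DMSO typically 0.2%). Viability was read by CellTiter-Glo 2.0 luminescence and scaled as inhibition from 0 (vehicle wells) to 1 (blank wells). Combination Emax is the second-highest inhibition in the matrix; Bliss excess is observed combination effect minus expected EA + EB − EA·EB, EA and EB being single-agent effects.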

[2] = tested on: PL4 (Pancreatic Carcinoma)
How it was run: as §1

[3] = tested on: P32-ISH (Burkitt's Lymphoma)
How it was run: as §1

[4] = tested on: AM-38 (Glioblastoma)
How it was run: as §1

[5] = tested on: HT-1080 (Other Solid Carcinomas)
How it was run: as §1

[6] = tested on: T84 (Colorectal Carcinoma)
How it was run: as §1

[7] = tested on: NB1 (Neuroblastoma)
How it was run: as §1

[8] = tested on: RCC-JW (Kidney Carcinoma)
How it was run: as §1

[9] = tested on: SiHa (Cervical Carcinoma)
How it was run: as §1

[10] = tested on: MONO-MAC-6 (Acute Myeloid Leukemia)
How it was run: as §1

[11] = tested on: P30-OHK (B-Lymphoblastic Leukemia)
How it was run: as §1

[12] = tested on: Raji (Burkitt's Lymphoma)
How it was run: as §1

[13] = tested on: KALS-1 (Glioblastoma)
How it was run: as §1

[14] = tested on: LCLC-103H (Non-Small Cell Lung Carcinoma)
How it was run: as §1

[15] = tested on: MS-1 (Small Cell Lung Carcinoma)
How it was run: as §1

[16] = tested on: IA-LM (Non-Small Cell Lung Carcinoma)
How it was run: as §1

[17] = tested on: PA-TU-8988T (Pancreatic Carcinoma)
How it was run: as §1

[18] = tested on: MOLP-8 (Plasma Cell Myeloma)
How it was run: as §1

[19] = tested on: SUP-M2 (T-Cell Non-Hodgkin's Lymphoma)
How it was run: as §1

[20] = tested on: NCI-H3118 (Head and Neck Carcinoma)
How it was run: as §1

SMILES	combination Emax [1]	combination Emax [2]	combination Emax [3]	combination Emax [4]	combination Emax [5]	combination Emax [6]	combination Emax [7]	combination Emax [8]	combination Emax [9]	combination Emax [10]	combination Emax [11]	combination Emax [12]	combination Emax [13]	combination Emax [14]	combination Emax [15]	combination Emax [16]	combination Emax [17]	combination Emax [18]	combination Emax [19]	combination Emax [20]
COc1nnc2ccc(N3CCC(c4ccc(OCCN5CCN(C)C(=O)[C@H]5C)cc4)CC3)nn12 [AZD5153] + CC1(C)CCC(CN2CCN(c3ccc(C(=O)NS(=O)(=O)c4ccc(NCC5CCOCC5)c([N+](=O)[O-])c4)c(Oc4cnc5[nH]ccc5c4)c3)CC2)=C(c2ccc(Cl)cc2)C1 [Venetoclax] (first compound max 1 µM, 7x7, partner max 1 µM)	0.409	0.572	0.701	0.232	0.322	0.219	0.232	0.3	0.505	0.989	1	0.62	0.616	0.376	0.906	0.495	0.664	0.945	0.965	0.568
COc1cccc(OCCCN)c1-c1cc(Nc2cnc(C#N)cn2)n[nH]1 [Prexasertib] + O=C(c1cc(Cc2n[nH]c(=O)c3ccccc23)ccc1F)N1CCN(C(=O)C2CC2)CC1 [Olaparib] (first compound max 1 µM, 7x7, partner max 10 µM)	0.397	0.812	1	0.847	0.542	0.826	0.561	0.319	0.404	0.976	0.991	0.982	0.785	0.78	0.896	0.463	0.288	0.882	1	0.837
COc1nnc2ccc(N3CCC(c4ccc(OCCN5CCN(C)C(=O)[C@H]5C)cc4)CC3)nn12 [AZD5153] + C[C@@H]1COCCN1C2=NC(=NC(=C2)C3(CC3)[S@](=N)(=O)C)C4=C5C=CNC5=NC=C4 [AZD6738] (first compound max 1 µM, 7x7, partner max 10 µM)	0.597	0.756	0.957	0.823	0.579	0.583	0.744	0.527	0.639	1	1	0.875	0.812	0.492	1	0.443	0.778	0.987	1	0.61
Cc1c2c(nn1C)CSCc1cc(n(C)n1)CSc1cc(c3ccccc3c1)OCCCc1c(C(=O)O)n(C)c3c-2c(Cl)ccc13 [AZD5991] + C[C@@H]1COCCN1C2=NC(=NC(=C2)C3(CC3)[S@](=N)(=O)C)C4=C5C=CNC5=NC=C4 [AZD6738] (first compound max 1 µM, 7x7, partner max 10 µM)	0.554	0.761	1	0.771	0.495	0.669	0.931	0.547	0.318	1	0.996	0.974	0.926	0.531	0.826	0.389	0.345	1	1	0.601
CCc1c2c(nc3ccc(O)cc13)-c1cc3c(c(=O)n1C2)COC(=O)[C@]3(O)CC [SN-38] + CN(C)CCCOc1ccc(-c2ccc3ncc4c(c3c2)n(C2CCOCC2)c(=O)n4C)cn1 [AZD0156] (first compound max 0.3 µM, 7x7, partner max 1 µM)	0.294	0.828	1	0.917	0.374	0.644	0.83	0.656	0.235	1	0.973	0.958	0.596	0.486	0.63	0.882	0.704	0.78	1	0.402
NC1(C(=O)N[C@@H](CCO)c2ccc(Cl)cc2)CCN(c2ncnc3[nH]ccc23)CC1 [Capivasertib] + Cn1cnc2c(F)c(Nc3ccc(Br)cc3Cl)c(C(=O)NOCCO)cc21 [Selumetinib] (first compound max 10 µM, 7x7, partner max 10 µM)	0.85	0.726	0.489	0.675	0.466	0.539	0.776	0.369	0.233	0.847	0.186	0.192	0.61	0.389	0.267	0.374	0.689	0.715	0.507	0.657
